{"source": "patent US3981982A", "about": "“Radioimmunoassay for determining the digoxin content of a sample” (Abbott Laboratories, priority 1974, dated 1976)", "key": {"digoxin antibody [1]": {"test_system": "digoxin antibody", "test": "Competitive radioimmunoassay with I^125 digoxin tyramine analog, polyethylene glycol separation: percent bound (Table I)", "assay_type": "binding, rabbits", "conditions": "for Percent Bound: single tube", "from_the_text": "Described is a competitive radioimmunoassay in which non-radioactive digoxin in a serum sample competes with a constant amount of I^125 digoxin tyramine analog for binding cites on a limited amount of digoxin antibody. The percentage or portion of the radioactivity labeled digoxin which is bound to the antibody is inversely proportional to the concentration of digoxin in the serum sample. The antibody bound digoxin, both radioactive and non-radioactive is separated from unbound digoxin and the radioactivity of the complex is measured with a well-type gamma scintillation counter. The concentration of digoxin in the serum is determined by comparison with standards containing measured amounts of unlabeled digoxin. The use of I^125 digoxin tyramine analog simplifies the procedure, obviating the need for liquid scintillation counting fluid which must be used with ^3 H-digoxin.\nIn the radioimmunoassay of the present invention, the use of polyethylene glycol is preferred to separate the bound, labeled digoxin tyramine analog from the free digoxin although ethanol or ammonium sulfate can be used. After incubation of the antigen and antibody, a predetermined amount of polyethylene glycol is added and the mixture is agitated. Subsequently, the antibody-bound digoxin is precipitated and separated by centrifugation. The radioactivity remaining in the precipitate is measured to determine the amount of I^125 digoxin tyramine analog which is bound to the antibody. This amount will be inversely proportional with the quantity of nonlabeled antigen present in the serum sample.\nThe radioimmunoassay of the present invention measures digoxin in the serum sample. The digoxin in a serum sample competes with a constant amount of a radioactively labeled digoxin tyramine analog for binding cites on a limited amount of digoxin antibody. The digoxin tyramine analog comprises 3-0-(4-Hydroxyphenethylcarbamoyl) digoxigenin prepared as hereinafter described. The digoxin tyramine analog is labeled with a radioactive isotope, employing conventional procedures. Iodine-I^125 is preferred as the labeling agent because of its advantageous half life but other radionuclides such as iodine^131, phosphorus^32 and tritium can also be used to radioactively label the reagent. The use of this tracer simplifies the procedure, obviating the need for liquid scintillation counting fluid which must be used with prior tracers such as ^3 H-digoxin.\n1. I^125 -digoxin tyramine analog solution in an alcohol-phosphate saline buffer and having a radioactivity level of approximately 1 microcurie per vial.\n2. Digoxin standards for preparation of a standard curve and comprising five vials containing 0.0, 0.5, 1.0, 2.0 and 4.0 nanograms per milliliter digoxin in normal human serum. 0.2% sodium azide is used as a preservative.\n3. Digoxin antiserum obtained from rabbits in phosphate-saline buffer containing 0.1% […] serum albumin. 0.2% sodium azide is used as a preservative.\n4. Polyethylene glycol, 18% solution in 0.09M barbital buffer.\nThe test procedure is conducted as follows.\nb. Tubes 3 through 12 containing known amounts of digoxin are used to prepare the standard curve. Tubes 3 and 4, 0.0 nanograms per milliliter digoxin. Tubes 5 and 6, 0.5 nanograms per milliliter digoxin. Tubes 7 and 8, 1.0 nanograms per milliliter digoxin. Tubes 9 and 10, 2.0 nanograms per milliliter digoxin. Tubes 11 and 12, 4.0 nanograms per milliliter digoxin.\n(§1) The tubes are shaken to mix the reagents therein.\nThe points are connected with straight lines to construct the curve."}, "digoxin antibody [2]": {"test_system": "digoxin antibody", "test": "Reproducibility of percent bound, two technicians (Table II)", "assay_type": "binding, rabbits", "experimental": "as §1\nTable II illustrates the accuracy, precision and reproducibilty of the method of the present invention.\nReplicates of 2 Panel Samples were assayed by two technicians in the\nlaboratory. Fifteen replicate samples were used."}, "[3]": {"conditions": "digoxin level; suggested by H. M. Part et al., J. of NUCL. Med. 1973; cited from earlier work"}, "[4]": {"conditions": "usually; background statement; cited from earlier work"}}, "note": "Values joined by “and” are separate entries in the source; they are usually repeats but may differ in a detail not shown here. Equal values may be shown once.", "data": [{"smiles": "C[C@]12CC[C@H](OC(=O)NCCc3ccc(O)c([125I])c3)C[C@H]1CC[C@@H]1[C@@H]2C[C@@H](O)[C@]2(C)[C@@H](C3=CC(=O)OC3)CC[C@]12O", "note": "[I^125 digoxin tyramine analog]", "values": [{"measurement": "Average % Bound", "setting": "digoxin antibody [1]; digoxin standard 0.0 ng/ml, mean of duplicate tubes 3, 4", "value": 59.7, "unit": "%"}, {"measurement": "Percent Bound", "setting": "digoxin antibody [1]; digoxin standard 0.0 ng/ml", "value": "59.2% and 60.2%"}, {"measurement": "Average % Bound", "setting": "digoxin antibody [1]; digoxin standard 0.5 ng/ml, mean of duplicate tubes 5, 6", "value": 52.9, "unit": "%"}, {"measurement": "Percent Bound", "setting": "digoxin antibody [1]; digoxin standard 0.5 ng/ml", "value": "53.8% and 52.1%"}, {"measurement": "Average % Bound", "setting": "digoxin antibody [1]; digoxin standard 1.0 ng/ml, mean of duplicate tubes 7, 8", "value": 41.5, "unit": "%"}, {"measurement": "Percent Bound", "setting": "digoxin antibody [1]; digoxin standard 1.0 ng/ml", "value": 41.5, "unit": "%"}, {"measurement": "Average % Bound", "setting": "digoxin antibody [1]; digoxin standard 2.0 ng/ml, mean of duplicate tubes 9, 10", "value": 22.9, "unit": "%"}, {"measurement": "Percent Bound", "setting": "digoxin antibody [1]; digoxin standard 2.0 ng/ml", "value": "22.5% and 23.4%"}, {"measurement": "Average % Bound", "setting": "digoxin antibody [1]; digoxin standard 4.0 ng/ml, mean of duplicate tubes 11, 12", "value": 12.9, "unit": "%"}, {"measurement": "Percent Bound", "setting": "digoxin antibody [1]; digoxin standard 4.0 ng/ml", "value": "12.8% and 12.9%"}, {"measurement": "Average % Bound", "setting": "digoxin antibody [1]; unknown serum sample No. 14, mean of duplicates", "value": 17.7, "unit": "%"}, {"measurement": "Percent Bound", "setting": "digoxin antibody [1]; unknown serum sample No. 14", "value": "17.5% and 17.9%"}, {"measurement": "Average % Bound", "setting": "digoxin antibody [1]; unknown serum sample No. 15, mean of duplicates", "value": 64.1, "unit": "%"}, {"measurement": "Percent Bound", "setting": "digoxin antibody [1]; unknown serum sample No. 15", "value": "63.3% and 65.0%"}, {"measurement": "Average % Bound", "setting": "digoxin antibody [1]; unknown serum sample No. 16, mean of duplicates", "value": 25.3, "unit": "%"}, {"measurement": "Percent Bound", "setting": "digoxin antibody [1]; unknown serum sample No. 16", "value": "25.1% and 25.5%"}, {"measurement": "Average % Bound", "setting": "digoxin antibody [1]; unknown serum sample No. 17, mean of duplicates", "value": 49.6, "unit": "%"}, {"measurement": "Percent Bound", "setting": "digoxin antibody [1]; unknown serum sample No. 17", "value": "50.8% and 48.5%"}, {"measurement": "Average % Bound", "setting": "digoxin antibody [1]; unknown serum sample No. 18, mean of duplicates", "value": 24.4, "unit": "%"}, {"measurement": "Percent Bound", "setting": "digoxin antibody [1]; unknown serum sample No. 18", "value": "24.5% and 24.3%"}, {"measurement": "% Bound", "setting": "digoxin antibody [2]; Panel Sample 1, Technician I, fifteen replicates", "value": 44.1, "unit": "%"}, {"measurement": "% Bound", "setting": "digoxin antibody [2]; Panel Sample 1, Technician II, fifteen replicates", "value": 43.6, "unit": "%"}, {"measurement": "% Bound", "setting": "digoxin antibody [2]; Panel Sample 2, Technician I, only 14 replicates", "value": 21.5, "unit": "%"}, {"measurement": "% Bound", "setting": "digoxin antibody [2]; Panel Sample 2, Technician II, fifteen replicates", "value": 20.1, "unit": "%"}]}, {"smiles": "C[C@H]1O[C@@H](O[C@H]2[C@@H](O)C[C@H](O[C@H]3[C@@H](O)C[C@H](O[C@H]4CC[C@@]5(C)[C@H](CC[C@@H]6[C@@H]5C[C@@H](O)[C@]5(C)[C@@H](C7=CC(=O)OC7)CC[C@]65O)C4)O[C@@H]3C)O[C@@H]2C)C[C@H](O)[C@@H]1O", "note": "[digoxin]", "values": [{"measurement": "approximate toxic threshold", "setting": "[3]", "value": "~2", "unit": "ng/mL"}, {"measurement": "amounts of digoxin in serum", "setting": "[4]", "value": "less than five"}]}]}
